In patent US20030104030A1, “Stent for blood vessel and material for stent for blood vessel” (priority 2002, published 2003):

Assay: amount of tranilast in the stents, measured by high performance liquid chromatography
Format: physicochemical
Conditions: impregnation in stent with supercritical CO2, 40 to 140° C.
Description: In the experimental example 2, a plural number of luminal stents, formed of plural biodegradable polymer material, in particular plural fibers of biodegradable polymer, in which the drug was impregnated as the pressure and the temperature of CO2 were varied, were formed, and measurements were made of the amount of the drug for each of these stents.
Of the stents, obtained in Examples 14 to 25, the amount of tranilast was measured using a high performance liquid chromatography.

- thermal decomposition of drug during impregnation: without undergoing thermal decomposition
Compound: COc1ccc(C=CC(=O)Nc2ccccc2C(=O)O)cc1OC [tranilast, N-(3,4-dimethoxycinnamoyl) anthranilic acid]
